Data reported in US8106052B2, “Luminescence-based methods and probes for measuring cytochrome P450 activity” (Promega Corporation, priority 2002, dated 2012).
pIC50: −log10 of the molar value.

How the values were obtained:
thermostable luciferase = test: Stabilization of luminescent signal using luciferase inhibitors; conditions: 100 micromolar inhibitor; CYP1A1 with Luciferin chloroethyl ether; read for 1 hour
Protocol: FIG. 17. Stabilization of luminescent signals using luciferase inhibitors. […] Luminescence was read immediately and at subsequent 5 minute intervals for 1 hour.
(AMBT) or 2-(4-aminophenyl)-6-methylbenzothiazole (APMBT), were evaluated to determine their effect on stabilizing a luminescent signal.
Luminescence was read immediately and at subsequent 5 minute intervals for 1 hour.

CYP1A1 [1] = biological target: T1, CYP1A1 (Homo sapiens, UniProt P04798); test: Two-step luminescent CYP450 inhibition assay; assay type: biochemical; parameters: purchased GenTest (Woburn, Mass.); host or cells: Sf9 insect cells; conditions: substrate Luc CEE; 50 microliter reaction, 1 picomole CYP450; read-out: IC50 of known CYP450 substrate against CYP1A1/Luc CEE
T1 sequence (P04798 1-512): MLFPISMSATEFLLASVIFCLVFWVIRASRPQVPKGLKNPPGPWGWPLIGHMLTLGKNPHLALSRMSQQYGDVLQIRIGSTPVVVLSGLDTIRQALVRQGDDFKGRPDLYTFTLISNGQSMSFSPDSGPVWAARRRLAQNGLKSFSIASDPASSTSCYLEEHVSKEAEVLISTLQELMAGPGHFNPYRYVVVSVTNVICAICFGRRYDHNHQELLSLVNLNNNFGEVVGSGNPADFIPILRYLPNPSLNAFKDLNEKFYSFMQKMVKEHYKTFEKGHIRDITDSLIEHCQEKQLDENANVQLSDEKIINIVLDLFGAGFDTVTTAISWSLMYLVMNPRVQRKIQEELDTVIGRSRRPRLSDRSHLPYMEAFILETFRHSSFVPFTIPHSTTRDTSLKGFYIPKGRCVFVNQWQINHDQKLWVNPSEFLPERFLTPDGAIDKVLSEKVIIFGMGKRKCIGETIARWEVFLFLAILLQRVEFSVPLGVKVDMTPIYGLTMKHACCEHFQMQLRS
Protocol: After an initial incubation period at 37° C.
Luciferin derivatives as substrates for luminescent CYP450 assays would be useful as probes for detecting other CYP450 substrates. Because two distinct substrates for the same CYP450 isoform will likely compete for the active site, it is possible to characterize known substrates and to identify novel substrates by observing their capacity to inhibit the luminescent reactions with luciferin derivatives. […] The drugs inhibited the reactions in a dose-dependent manner, thus verifying the expectation that CYP450 substrates can be detected by these luminescent assays (see table below). IC50s were calculated by non-linear regression analysis with the program GraphPad PRISM™ (San Diego, Calif.). The reactions were performed as described in Example 2 except the first step (CYP450 reaction) was in a 50 microliter reaction volume with 1 picomole of CYP450. In the second step a 50 microliter luciferase reaction was added to give final concentrations of 50 micrograms/mL recombinant, mutant of firefly luciferase from Photuris pennsylvanica from Promega (17), 200 micromolar ATP, 0.1% tergitol (v/v), 4.0 mM MgSO4 and 100 mM Tricine pH 8.4. FIGS. 11(a)-(c) illustrate the actual inhibition curves.

CYP1A2 = biological target: T2, CYP1A2 (Homo sapiens, UniProt P05177); test: Two-step CYP450/Renilla reaction, coelenterazine derivative evaluation; assay type: biochemical; conditions: 60 min at 37° C.
T2 sequence (P05177 1-516): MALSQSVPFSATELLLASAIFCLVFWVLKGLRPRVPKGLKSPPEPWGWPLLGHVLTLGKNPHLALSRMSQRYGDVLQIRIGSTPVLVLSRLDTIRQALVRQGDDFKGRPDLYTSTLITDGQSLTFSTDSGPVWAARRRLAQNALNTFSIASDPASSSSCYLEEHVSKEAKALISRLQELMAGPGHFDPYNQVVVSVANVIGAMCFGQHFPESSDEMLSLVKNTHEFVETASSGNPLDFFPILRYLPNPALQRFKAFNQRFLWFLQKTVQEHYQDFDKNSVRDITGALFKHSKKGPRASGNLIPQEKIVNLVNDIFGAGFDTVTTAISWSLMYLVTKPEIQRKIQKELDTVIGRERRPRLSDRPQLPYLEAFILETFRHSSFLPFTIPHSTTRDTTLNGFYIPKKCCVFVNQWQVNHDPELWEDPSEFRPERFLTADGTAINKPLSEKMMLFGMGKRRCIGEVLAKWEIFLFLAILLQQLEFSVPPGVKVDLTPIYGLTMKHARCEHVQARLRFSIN
Protocol: (§1) In this Example, P450 activity was determined using coelenterazine and coelenterazine derivatives, methoxy-coelenterazine HH and coelenterazine HH, in a two-step reaction system. In these assays, P450 acts on the coelenterazine or coelenterazine derivatives in one of two ways. […] An example of this type of coelenterazine derivative is methoxy-coelenterazine HH. […] In both types of assay it is possible to detect P450 activity either directly by a change in chemiluminescence or indirectly by a change in bioluminescence from a Renilla-type luciferase.
(§2) […]; 625 mM KCl; 0.125 mM EDTA pH 8.0; 0.25% Triton X-100; 0.125% Mazu; 1.25% Glycerol; 0.25 mg/mL gelatin to the P450 reactions. Renilla luciferase (1.2 ng/mL) (purchased from Chemicon) was added for detection of bioluminescence of P450 altered coelenterazine or coelenterazine derivatives.

CYP2E1 = biological target: T3, CYP2E1 (Homo sapiens, UniProt P05181); test: as above; assay type: biochemical; conditions: 60 min at 37° C.; 3 micromolar substrate
T3 construct: purchased GenTest (Woburn, Mass.); host or cells: Sf9 insect cells, baculovirus
T3 sequence (P05181 whole entry): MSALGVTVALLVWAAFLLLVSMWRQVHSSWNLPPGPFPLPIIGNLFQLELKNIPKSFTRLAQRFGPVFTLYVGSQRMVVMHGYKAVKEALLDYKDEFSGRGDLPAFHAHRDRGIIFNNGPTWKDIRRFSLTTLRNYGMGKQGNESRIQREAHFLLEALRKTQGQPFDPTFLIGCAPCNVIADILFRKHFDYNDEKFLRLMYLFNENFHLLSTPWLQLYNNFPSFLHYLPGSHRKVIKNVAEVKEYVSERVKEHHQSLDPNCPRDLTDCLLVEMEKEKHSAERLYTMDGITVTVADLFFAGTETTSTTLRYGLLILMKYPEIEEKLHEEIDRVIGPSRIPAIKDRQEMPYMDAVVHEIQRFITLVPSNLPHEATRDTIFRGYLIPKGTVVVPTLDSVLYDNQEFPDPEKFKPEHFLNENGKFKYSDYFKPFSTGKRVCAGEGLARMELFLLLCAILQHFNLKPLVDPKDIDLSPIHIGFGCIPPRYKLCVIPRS
Protocol: as §1, §2

CYP2B6 = biological target: T4, CYP2B6 (Homo sapiens, UniProt P20813); test: as above; assay type: biochemical; conditions: 60 min at 37° C.; 10 micromolar substrate
T4 construct: purchased GenTest (Woburn, Mass.); host or cells: Sf9 insect cells, baculovirus
T4 sequence (P20813 1-491): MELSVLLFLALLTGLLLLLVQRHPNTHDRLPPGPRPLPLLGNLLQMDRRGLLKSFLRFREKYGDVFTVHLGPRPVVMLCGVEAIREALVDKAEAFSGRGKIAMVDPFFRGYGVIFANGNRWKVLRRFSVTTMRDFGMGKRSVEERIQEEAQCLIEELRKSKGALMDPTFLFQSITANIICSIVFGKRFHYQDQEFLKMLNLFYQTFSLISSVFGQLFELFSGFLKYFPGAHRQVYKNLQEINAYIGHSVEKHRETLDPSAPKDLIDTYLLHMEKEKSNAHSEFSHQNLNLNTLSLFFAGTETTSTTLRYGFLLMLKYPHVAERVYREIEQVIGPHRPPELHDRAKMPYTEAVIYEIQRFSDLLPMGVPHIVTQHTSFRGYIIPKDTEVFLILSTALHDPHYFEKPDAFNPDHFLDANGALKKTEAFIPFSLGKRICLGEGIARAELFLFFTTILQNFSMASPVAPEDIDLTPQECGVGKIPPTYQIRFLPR
Protocol: as §1, §2

CYP2C19 = biological target: T5, CYP2C19 (Homo sapiens, UniProt P33261); test: as above; assay type: biochemical; conditions: 60 min at 37° C.; 10 micromolar substrate
T5 construct: purchased GenTest (Woburn, Mass.); host or cells: Sf9 insect cells, baculovirus
T5 sequence (P33261 whole entry): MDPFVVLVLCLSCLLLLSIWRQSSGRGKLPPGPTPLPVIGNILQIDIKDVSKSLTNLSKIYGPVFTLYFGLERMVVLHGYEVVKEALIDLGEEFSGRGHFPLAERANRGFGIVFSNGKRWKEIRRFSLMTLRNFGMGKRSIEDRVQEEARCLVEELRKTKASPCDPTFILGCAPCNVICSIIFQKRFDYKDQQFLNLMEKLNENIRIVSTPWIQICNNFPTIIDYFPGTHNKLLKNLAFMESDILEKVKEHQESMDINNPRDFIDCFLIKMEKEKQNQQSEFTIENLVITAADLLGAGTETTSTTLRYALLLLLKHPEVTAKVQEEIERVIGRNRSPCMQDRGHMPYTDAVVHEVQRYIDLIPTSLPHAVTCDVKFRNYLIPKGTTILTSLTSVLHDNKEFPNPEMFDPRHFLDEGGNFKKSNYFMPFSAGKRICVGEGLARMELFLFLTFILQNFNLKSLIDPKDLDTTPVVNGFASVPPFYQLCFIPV
Protocol: as §1, §2

CYP1A1 [2] = biological target: T1, CYP1A1; test: as above; assay type: biochemical; parameters: purchased GenTest (Woburn, Mass.); host or cells: baculovirus-infected insect cells; conditions: 60 min at 37° C.; 10 micromolar substrate
Protocol: as §1, §2

## Cc1ccc2nc(-c3ccc(N)cc3)sc2c1 [APMBT, 2-(4-aminophenyl)-6-methylbenzothiazole]
Thermostable luciferase
  Effect on luminescent signal in a luminescent CYP450 assay: stabilizes the luminescent signal

## CCOc1ccc(NC(C)=O)cc1 [Phenacetin, phenacetin]
CYP1A1 [1]
  pIC50: 4.68

## O=c1c(Cc2ccccc2)nc2c(Cc3ccccc3)[nH]c(-c3ccccc3)cn1-2 [coelenterazine HH, 2,8-Dibenzyl-6-phenyl-7H-imidazo[1,2-a]pyrazin-3-one]
CYP1A2; 3 micromolar substrate
  Change in chemiluminescence and bioluminescence after incubation with CYP1A2: significant reduction
CYP2E1
  Change in chemiluminescence and bioluminescence after incubation with CYP2E1: significant reduction

## COc1c(Cc2ccccc2)nc2c(Cc3ccccc3)nc(-c3ccccc3)cn12 [methyl-coelenterazine HH, 2,8-Dibenzyl-3-methoxy-6-phenyl-imidazo[1,2-a]pyrazine]
CYP1A2; 10 micromolar substrate
  Increase in chemiluminescence and bioluminescence with CYP1A2 (+P450 RLU/-P450 RLU): 2-5 ×
CYP2B6
  Increase in chemiluminescence and bioluminescence with CYP2B6 (+P450 RLU/-P450 RLU): 2-5 ×
CYP2C19
  Increase in chemiluminescence and bioluminescence with CYP2C19 (+P450 RLU/-P450 RLU): 2-5 ×
CYP1A1 [2]
  Change in chemiluminescence and bioluminescence after incubation with CYP1A1: large increase
